Converted amounts (≈) assume the structure as drawn.
How the values were obtained:
Assay type in all cases: functional
Enterobacter cloacae = experiment: Compound was evaluated for antibacterial activity against Enterobacter cloacae P99.
Escherichia coli [1] = experiment: Compound was evaluated for antibacterial activity against Escherichia coli DC 0.
Klebsiella pneumoniae = experiment: Compound was evaluated for antibacterial activity against Klebsiella pneumoniae NCTC 9632.
Proteus vulgaris = experiment: Compound was evaluated for antibacterial activity against Proteus vulgaris GN76.
Pseudomonas aeruginosa [2] = experiment: Compound was evaluated for antibacterial activity against Pseudomonas aeruginosa 1771.
Pseudomonas aeruginosa [3] = experiment: Compound was evaluated for antibacterial activity against Pseudomonas aeruginosa 1771M.
Pseudomonas aeruginosa [4] = experiment: Compound was evaluated for antibacterial activity against Pseudomonas aeruginosa 9027.
Pseudomonas aeruginosa [5] = experiment: Compound was evaluated for antibacterial activity against Pseudomonas aeruginosa C-1198.
Staphylococcus aureus [6] = experiment: Compound was evaluated for antibacterial activity against Staphylococcus aureus C2379 (MRSA).
Staphylococcus aureus [7] = experiment: Compound was evaluated for antibacterial activity against Staphylococcus aureus Smith.
Streptococcus pyogenes = experiment: Compound was evaluated for antibacterial activity against Streptococcus pyogenes A77.
Serratia marcescens = experiment: Compound was evaluated for antibacterial activity against Serratia marcescens IFO 12648.
Streptococcus pneumoniae = experiment: Compound was evaluated for antibacterial activity against Streptococcus pneumoniae type I.
Escherichia coli [8] = experiment: Compound was evaluated for antibacterial activity against Escherichia coli DC 2.

Row | SMILES | MIC (Enterobacter cloacae) [µg/mL] | MIC (Escherichia coli [1]) [µg/mL] | MIC (Klebsiella pneumoniae) [µg/mL] | MIC (Proteus vulgaris) [µg/mL] | MIC (Pseudomonas aeruginosa [2]) [µg/mL] | MIC (Pseudomonas aeruginosa [3]) [µg/mL] | MIC (Pseudomonas aeruginosa [4]) [µg/mL] | MIC (Pseudomonas aeruginosa [5]) [µg/mL] | MIC (Staphylococcus aureus [6]) [µg/mL] | MIC (Staphylococcus aureus [7]) [µg/mL] | MIC (Streptococcus pyogenes) [µg/mL] | MIC (Serratia marcescens) [µg/mL] | MIC (Streptococcus pneumoniae) [µg/mL] | MIC (Escherichia coli [8]) [µg/mL]
1 | CC(=O)N(O)CCO/N=C(\C(=O)N[C@@H]1C(=O)N2C(C(=O)O)=C(CSc3nc(C)c(CC(=O)O)s3)CS[C@H]12)c1csc(N)n1 | 50 (≈ 74.4 µM) | 0.781 (≈ 1.16 µM) | 0.098 (≈ 0.146 µM) | 0.049 (≈ 0.0729 µM) | 3.12 (≈ 4.65 µM) | 0.391 (≈ 0.582 µM) | 12.5 (≈ 18.6 µM) | 50 (≈ 74.4 µM) | 100 (≈ 149 µM) | 12.5 (≈ 18.6 µM) | 0.013 (≈ 0.0194 µM) | 1.56 (≈ 2.33 µM) | 0.049 (≈ 0.0729 µM) | 0.098 (≈ 0.146 µM)
2 | CC(=O)N(O)CCO/N=C(\C(=O)N[C@@H]1C(=O)N2C(C(=O)[O-])=C(C[n+]3ccccc3)CS[C@H]12)c1csc(N)n1 | 25 (≈ 44.5 µM) | 0.781 (≈ 1.39 µM) | 0.098 (≈ 0.175 µM) | 0.781 (≈ 1.39 µM) | 0.781 (≈ 1.39 µM) | 0.391 (≈ 0.696 µM) | 6.25 (≈ 11.1 µM) | 25 (≈ 44.5 µM) | 12.5 (≈ 22.3 µM) | 3.12 (≈ 5.56 µM) | 0.007 (≈ 0.0125 µM) | 0.391 (≈ 0.696 µM) | 0.049 (≈ 0.0873 µM) | 0.195 (≈ 0.347 µM)
3 | CC(=O)N(O)CCO/N=C(\C(=O)N[C@@H]1C(=O)N2C(C(=O)[O-])=C(CSc3cccc4[n+]3CCN4)CS[C@H]12)c1csc(N)n1 | 50 (≈ 78.8 µM) | 1.56 (≈ 2.46 µM) | 0.025 (≈ 0.0394 µM) | 3.12 (≈ 4.92 µM) | 3.12 (≈ 4.92 µM) | 3.12 (≈ 4.92 µM) | 12.5 (≈ 19.7 µM) | 50 (≈ 78.8 µM) | 12.5 (≈ 19.7 µM) | 1.56 (≈ 2.46 µM) | 0.025 (≈ 0.0394 µM) | 3.12 (≈ 4.92 µM) | 0.025 (≈ 0.0394 µM) | 1.56 (≈ 2.46 µM)
4 | CC(=O)N(O)CCO/N=C(\C(=O)N[C@@H]1C(=O)N2C(C(=O)[O-])=C(C[n+]3cccc4c3CCC4)CS[C@H]12)c1csc(N)n1 | 25 (≈ 41.6 µM) | 0.391 (≈ 0.65 µM) | 0.195 (≈ 0.324 µM) | 1.56 (≈ 2.6 µM) | 1.56 (≈ 2.6 µM) | 0.781 (≈ 1.3 µM) | 6.25 (≈ 10.4 µM) | 50 (≈ 83.1 µM) | 6.25 (≈ 10.4 µM) | 0.781 (≈ 1.3 µM) | 0.004 (≈ 0.00665 µM) | 0.781 (≈ 1.3 µM) | 0.025 (≈ 0.0416 µM) | 0.195 (≈ 0.324 µM)
5 | CC(=O)N(O)CCO/N=C(\C(=O)N[C@@H]1C(=O)N2C(C(=O)[O-])=C(C[n+]3ccc(CN(O)C(C)=O)cc3)CS[C@H]12)c1csc(N)n1 | 50 (≈ 77.1 µM) | 12.5 (≈ 19.3 µM) | 0.781 (≈ 1.2 µM) | 6.25 (≈ 9.63 µM) | 25 (≈ 38.5 µM) | 6.25 (≈ 9.63 µM) | 50 (≈ 77.1 µM) | > 100 | 50 (≈ 77.1 µM) | 12.5 (≈ 19.3 µM) | 0.007 (≈ 0.0108 µM) | 12.5 (≈ 19.3 µM) | 0.049 (≈ 0.0755 µM) | 0.391 (≈ 0.603 µM)
6 | CC(C)(O/N=C(\C(=O)N[C@@H]1C(=O)N2C(C(=O)[O-])=C(C[n+]3ccccc3)CS[C@H]12)c1csc(N)n1)C(=O)O [CEFTAZIDIME] | > 100 | 0.195 (≈ 0.357 µM) | 0.049 (≈ 0.0896 µM) | 0.049 (≈ 0.0896 µM) | 0.781 (≈ 1.43 µM) | 0.391 (≈ 0.715 µM) | 3.12 (≈ 5.72 µM) | > 100 | 50 (≈ 91.5 µM) | 6.25 (≈ 11.4 µM) | 0.098 (≈ 0.179 µM) | 0.098 (≈ 0.179 µM) | 0.195 (≈ 0.357 µM) | 0.098 (≈ 0.179 µM)

— ChEMBL document CHEMBL1129155, “Synthesis and antibacterial activity of cephalosporins having hydroxamic acid at C-7 position” (1996)
